Assay results: ChEMBL document CHEMBL1201862, “PubChem BioAssay data set” (2004)
Active and inactive are the calls of the source.

What was measured:
Fatty acid synthase [1] = molecular target: T1, Fatty acid synthase (Homo sapiens, UniProt P49327); test: inhibition of human FAS-TE enzyme activity – biochemical, endpoint fluorescence intensity, uHTS hits, dose response (AID 624327); assay type: functional;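 further: fluorescence from hydrolysis of an O-methyl fluorescein acyl ester substrate by the enzyme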
T1 sequence (P49327 whole entry): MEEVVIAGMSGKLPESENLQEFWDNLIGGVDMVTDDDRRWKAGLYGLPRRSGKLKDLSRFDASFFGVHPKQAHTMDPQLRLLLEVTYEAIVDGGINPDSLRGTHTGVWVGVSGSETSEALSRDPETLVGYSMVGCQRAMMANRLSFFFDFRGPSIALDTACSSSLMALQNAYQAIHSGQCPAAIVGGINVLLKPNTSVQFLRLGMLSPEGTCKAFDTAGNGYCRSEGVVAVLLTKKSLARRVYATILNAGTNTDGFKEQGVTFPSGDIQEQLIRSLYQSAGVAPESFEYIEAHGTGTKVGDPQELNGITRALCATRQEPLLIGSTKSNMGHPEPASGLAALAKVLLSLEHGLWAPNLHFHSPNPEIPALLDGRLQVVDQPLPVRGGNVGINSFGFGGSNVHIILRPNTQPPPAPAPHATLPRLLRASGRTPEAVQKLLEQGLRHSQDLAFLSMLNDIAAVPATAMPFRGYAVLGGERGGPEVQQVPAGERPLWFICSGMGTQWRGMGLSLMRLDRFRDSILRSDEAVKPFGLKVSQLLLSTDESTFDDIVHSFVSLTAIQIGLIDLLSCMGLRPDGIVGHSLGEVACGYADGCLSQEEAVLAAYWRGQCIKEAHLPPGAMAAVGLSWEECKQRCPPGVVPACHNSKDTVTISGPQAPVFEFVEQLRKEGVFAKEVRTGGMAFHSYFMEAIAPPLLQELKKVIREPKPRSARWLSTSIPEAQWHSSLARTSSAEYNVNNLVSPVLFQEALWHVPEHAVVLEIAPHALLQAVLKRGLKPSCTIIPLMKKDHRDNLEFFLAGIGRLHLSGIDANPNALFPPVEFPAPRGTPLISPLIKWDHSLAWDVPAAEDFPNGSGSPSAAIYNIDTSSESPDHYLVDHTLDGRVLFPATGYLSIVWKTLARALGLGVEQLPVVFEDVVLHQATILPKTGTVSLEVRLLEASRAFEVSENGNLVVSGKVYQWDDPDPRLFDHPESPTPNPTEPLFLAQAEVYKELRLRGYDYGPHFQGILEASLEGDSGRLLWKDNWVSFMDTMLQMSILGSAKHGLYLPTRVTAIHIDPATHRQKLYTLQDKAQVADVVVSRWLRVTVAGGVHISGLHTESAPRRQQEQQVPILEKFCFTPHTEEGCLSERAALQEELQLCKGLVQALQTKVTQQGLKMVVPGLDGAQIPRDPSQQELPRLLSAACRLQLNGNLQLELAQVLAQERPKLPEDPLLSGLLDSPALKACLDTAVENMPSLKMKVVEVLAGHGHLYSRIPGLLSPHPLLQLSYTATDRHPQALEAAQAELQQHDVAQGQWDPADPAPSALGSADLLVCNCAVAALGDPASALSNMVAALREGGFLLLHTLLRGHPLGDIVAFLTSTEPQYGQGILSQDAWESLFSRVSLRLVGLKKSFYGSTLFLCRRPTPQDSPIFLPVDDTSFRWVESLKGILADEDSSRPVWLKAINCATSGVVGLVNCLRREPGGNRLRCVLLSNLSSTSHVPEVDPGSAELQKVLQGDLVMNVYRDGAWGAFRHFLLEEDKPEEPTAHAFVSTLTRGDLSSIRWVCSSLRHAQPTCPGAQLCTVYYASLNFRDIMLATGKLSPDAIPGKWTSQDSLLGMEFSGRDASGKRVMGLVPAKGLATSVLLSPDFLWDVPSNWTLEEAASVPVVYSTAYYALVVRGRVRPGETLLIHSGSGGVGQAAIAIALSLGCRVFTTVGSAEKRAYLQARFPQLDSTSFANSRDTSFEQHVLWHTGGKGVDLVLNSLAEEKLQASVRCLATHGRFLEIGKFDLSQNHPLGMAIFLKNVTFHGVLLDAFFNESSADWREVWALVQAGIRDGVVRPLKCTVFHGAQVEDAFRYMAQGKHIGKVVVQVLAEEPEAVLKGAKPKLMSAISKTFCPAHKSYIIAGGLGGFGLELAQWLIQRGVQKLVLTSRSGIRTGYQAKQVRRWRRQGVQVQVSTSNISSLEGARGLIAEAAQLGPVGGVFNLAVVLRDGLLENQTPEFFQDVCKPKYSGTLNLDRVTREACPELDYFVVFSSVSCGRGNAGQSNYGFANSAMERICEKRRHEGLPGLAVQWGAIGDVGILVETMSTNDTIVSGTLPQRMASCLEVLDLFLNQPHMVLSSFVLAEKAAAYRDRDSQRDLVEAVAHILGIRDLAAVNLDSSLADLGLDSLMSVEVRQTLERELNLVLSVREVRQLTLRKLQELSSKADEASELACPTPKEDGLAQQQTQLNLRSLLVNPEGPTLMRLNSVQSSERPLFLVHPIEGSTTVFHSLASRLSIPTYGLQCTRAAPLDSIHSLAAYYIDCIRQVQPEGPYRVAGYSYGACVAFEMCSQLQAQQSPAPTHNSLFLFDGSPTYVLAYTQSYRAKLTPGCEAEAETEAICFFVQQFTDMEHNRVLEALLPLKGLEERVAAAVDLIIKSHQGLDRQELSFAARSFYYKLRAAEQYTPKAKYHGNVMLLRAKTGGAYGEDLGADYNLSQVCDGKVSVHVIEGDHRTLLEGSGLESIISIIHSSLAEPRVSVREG

Fatty acid synthase [2] = molecular target: T1, Fatty acid synthase; test: inhibition of human FAS-TE enzyme activity – biochemical, kinetic fluorescence intensity, dose response (AID 624326); assay type: functional;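 further: rate of fluorescence rise from hydrolysis of a fluorogenic O-methyl fluorescein ester substrate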
[3] = Luminescence Cell-Based Dose Retest to Confirm Inhibitors of Cancer Stem Cells. [Related pubchem assays (depositor defined):AID2717, AID2721]; assay type: functional; conditions: Homo sapiens
H9c2 = test: cells; assay type: functional, cell-based; conditions: Rattus norvegicus, H9c2, Myocardium;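 further: confirmatory concentration-response retest of ultra-high-throughput screening hits for modulation of myocardial damage; cell death induced by hydrogen peroxide oxidative stress; compound pretreatment for 60 min then peroxide exposure for 2 h; potency is for protecting the cells against peroxide damage rather than for killing them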
[4] = viability of uninfected HEp-2 cells – cell-based, HTS, cytotoxicity control for RSV inhibitor project, dose response (AID 2410); assay type: functional; conditions: human respiratory syncytial virus
[5] = microbe, parasite or virus in culture; assay type: functional; conditions: Mycobacterium tuberculosis
[6] = molecular target: Glyceraldehyde-3-phosphate dehydrogenase (Homo sapiens, UniProt P04406)
Sequence of Glyceraldehyde-3-phosphate dehydrogenase (P04406 whole entry): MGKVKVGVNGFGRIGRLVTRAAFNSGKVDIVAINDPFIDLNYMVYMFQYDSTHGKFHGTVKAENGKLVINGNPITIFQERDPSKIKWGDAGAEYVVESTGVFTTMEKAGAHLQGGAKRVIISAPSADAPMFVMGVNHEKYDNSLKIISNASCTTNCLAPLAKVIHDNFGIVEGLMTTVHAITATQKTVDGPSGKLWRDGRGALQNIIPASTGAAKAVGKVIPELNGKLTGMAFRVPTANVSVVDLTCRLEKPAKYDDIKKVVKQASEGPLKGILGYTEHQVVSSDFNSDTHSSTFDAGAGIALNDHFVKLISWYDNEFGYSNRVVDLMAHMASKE

[7] = molecular target: T2, High affinity choline transporter 1 (Homo sapiens, UniProt Q9GZV3); test: human choline transporter blockers, potency – cell-based, 5-point CRC, membrane potential dye, dose response (AID 504840); assay type: functional
T2 sequence (Q9GZV3 whole entry): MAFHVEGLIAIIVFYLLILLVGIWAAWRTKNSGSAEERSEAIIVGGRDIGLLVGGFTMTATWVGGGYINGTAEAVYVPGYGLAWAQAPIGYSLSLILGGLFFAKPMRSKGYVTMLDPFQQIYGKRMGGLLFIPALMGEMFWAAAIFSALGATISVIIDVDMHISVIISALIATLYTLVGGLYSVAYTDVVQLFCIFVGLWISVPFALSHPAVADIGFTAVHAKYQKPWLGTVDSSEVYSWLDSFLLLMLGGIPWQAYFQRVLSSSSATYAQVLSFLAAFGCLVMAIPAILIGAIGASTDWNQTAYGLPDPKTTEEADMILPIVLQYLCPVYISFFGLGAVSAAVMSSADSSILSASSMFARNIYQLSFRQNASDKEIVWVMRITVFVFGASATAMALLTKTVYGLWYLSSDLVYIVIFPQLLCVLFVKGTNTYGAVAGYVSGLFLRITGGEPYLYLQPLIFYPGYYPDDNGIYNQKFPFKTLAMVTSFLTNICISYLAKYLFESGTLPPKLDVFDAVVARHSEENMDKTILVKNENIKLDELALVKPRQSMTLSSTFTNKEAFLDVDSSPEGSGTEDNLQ

[8] = viability of HCT116 lacking mutant beta-catenin – cell-based, human colon tumor, dose response (AID 1045); assay type: functional;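 further: HCT116 colon tumor cells with beta catenin knocked out; cells exposed to compound for 60 hours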
[9] = viability of PTEN-deleted HCT116 cells – cell-based, HCT116 PTEN knockout, dose response (AID 1047); assay type: functional;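 further: HCT116 colon tumor cells with PTEN knocked out; cells exposed to compound for 60 hours before readout; potency for loss of cell viability measured by luminescence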
[10] = reduction of Shn3 3'UTR-driven luciferase in osteoblasts – cell-based, Clone20 osteoblasts, firefly luciferase, cherry-picked, dose response (AID 624132); assay type: functional;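 further: firefly luciferase luminescence from reporter carrying the Shn3 3'UTR in osteoblasts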
[11] = loss of viability in HepG2 cells – cell-based, CellTiter-Glo, cherry-picked, cytotoxicity control for Shn3 inhibitor project, dose response (AID 624134); assay type: functional
Genome polyprotein = Genome polyprotein (dengue virus type 2, UniProt P29990); test: flavivirus cap methylation enzyme inhibition – biochemical, confirmation dose response, primary screen (AID 588689); assay type: functional
Sequence of Genome polyprotein (P29990 2492-3391 limits assumed): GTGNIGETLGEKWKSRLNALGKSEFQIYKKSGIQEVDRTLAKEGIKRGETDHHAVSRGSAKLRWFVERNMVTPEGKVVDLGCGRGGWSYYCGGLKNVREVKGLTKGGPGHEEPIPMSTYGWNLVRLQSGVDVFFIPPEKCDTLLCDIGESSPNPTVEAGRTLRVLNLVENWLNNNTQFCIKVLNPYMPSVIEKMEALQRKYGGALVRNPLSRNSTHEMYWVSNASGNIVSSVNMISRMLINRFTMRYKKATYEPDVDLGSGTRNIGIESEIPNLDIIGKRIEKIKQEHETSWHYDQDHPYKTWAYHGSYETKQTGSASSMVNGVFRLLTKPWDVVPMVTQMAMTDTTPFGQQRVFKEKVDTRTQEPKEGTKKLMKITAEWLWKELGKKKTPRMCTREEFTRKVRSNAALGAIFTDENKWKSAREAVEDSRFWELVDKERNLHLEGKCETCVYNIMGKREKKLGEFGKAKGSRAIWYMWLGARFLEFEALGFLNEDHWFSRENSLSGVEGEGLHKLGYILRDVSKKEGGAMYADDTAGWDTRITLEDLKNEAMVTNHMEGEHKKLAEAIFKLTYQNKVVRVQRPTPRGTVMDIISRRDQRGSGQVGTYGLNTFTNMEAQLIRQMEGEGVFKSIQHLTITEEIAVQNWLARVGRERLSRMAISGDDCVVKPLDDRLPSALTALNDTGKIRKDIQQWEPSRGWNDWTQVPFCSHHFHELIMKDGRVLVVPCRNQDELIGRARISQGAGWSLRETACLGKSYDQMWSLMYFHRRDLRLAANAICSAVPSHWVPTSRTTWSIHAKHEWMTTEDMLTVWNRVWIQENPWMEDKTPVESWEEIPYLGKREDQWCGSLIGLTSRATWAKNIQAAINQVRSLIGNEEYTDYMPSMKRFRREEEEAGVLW

[12] = HEK-293T viability loss after treatment – luminescence, T-cell screen hits, cytotoxicity control for TCR NF-kB inhibitor project, dose response (AID 489026); assay type: functional, cell-based;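 further: cells exposed to compound about 14 hours before the viability readout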
[13] = THP-1 cell cytotoxicity, dose response, cytotoxicity control for non-replicating M. tuberculosis project (AID 489025); assay type: functional
[14] = fluconazole-exposed Candida albicans growth modulators – fluorescence, retest, confirmation (AID 2467); assay type: functional, cell-based
[15] = NIH-3T3 fibroblast cytotoxicity, dose response, cytotoxicity control, cell-based, fluorescence, Alamar Blue, secondary assay (AID 2327); assay type: functional;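 further: NIH-3T3 mouse fibroblasts cultured with fluconazole at 8 µg/mL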
[16] = molecular target: Induced myeloid leukemia cell differentiation protein Mcl-1 (Homo sapiens, UniProt Q07820); assay type: functional
Sequence of Induced myeloid leukemia cell differentiation protein Mcl-1 (Q07820 whole entry): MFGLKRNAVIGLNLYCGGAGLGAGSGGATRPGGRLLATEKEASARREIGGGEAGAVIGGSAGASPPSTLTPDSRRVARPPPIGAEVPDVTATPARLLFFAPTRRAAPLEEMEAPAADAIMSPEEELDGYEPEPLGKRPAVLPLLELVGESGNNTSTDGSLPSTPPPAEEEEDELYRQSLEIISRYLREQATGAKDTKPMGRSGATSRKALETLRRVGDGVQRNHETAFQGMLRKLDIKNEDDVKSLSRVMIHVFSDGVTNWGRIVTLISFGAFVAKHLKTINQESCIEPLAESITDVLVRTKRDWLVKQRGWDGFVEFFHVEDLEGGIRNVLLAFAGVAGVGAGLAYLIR

Streptococcus = test: GAS UMAA2166 growth inhibition – luminescence, BacTiterGlo, counter-screen for streptokinase expression inhibitor project, dose response (AID 1915); assay type: functional, organism-based;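 further: potency for reduction of bacterial viability or growth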
cells = assay type: functional
[17] = test system: Streptococcus sp. 'group A'; test: Streptococcus pyogenes SK(-)GAS viability under kanamycin – luminescence, BacTiterGlo, confirmation, counter-screen for streptokinase expression inhibitor project, dose response (AID 1900); assay type: functional, organism-based
[18] = Trypanosoma cruzi growth suppression in host cells – NIH3T3 host cells, beta-gal luminescence, confirmation (AID 2044); assay type: functional, cell-based;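 further: intracellular parasites grown in NIH/3T3 mouse fibroblasts as host cells; luminescent beta-galactosidase reporter signal from transgenic T. cruzi replicating inside host cells; inhibitors lower the luminescence signal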
[19] = NIH3T3 cell viability loss – ATP luminescence, mouse fibroblasts, counter-screen, dose response (AID 2010); assay type: functional, cell-based;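 further: cells exposed to compound for about 90 hours before reading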
Paired box protein Pax-8 = Paired box protein Pax-8 (Homo sapiens, UniProt Q06710); test: PAX8 transcriptional activity inhibition in RMG-I – RMG-I cells, luciferase, cherry-pick, dose response (AID 687027); assay type: functional, cell-based;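 further: luciferase reporter driven by Pax8 target thyroperoxidase promoter measured by SteadyGlo luminescence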
Sequence of Paired box protein Pax-8 (Q06710 whole entry): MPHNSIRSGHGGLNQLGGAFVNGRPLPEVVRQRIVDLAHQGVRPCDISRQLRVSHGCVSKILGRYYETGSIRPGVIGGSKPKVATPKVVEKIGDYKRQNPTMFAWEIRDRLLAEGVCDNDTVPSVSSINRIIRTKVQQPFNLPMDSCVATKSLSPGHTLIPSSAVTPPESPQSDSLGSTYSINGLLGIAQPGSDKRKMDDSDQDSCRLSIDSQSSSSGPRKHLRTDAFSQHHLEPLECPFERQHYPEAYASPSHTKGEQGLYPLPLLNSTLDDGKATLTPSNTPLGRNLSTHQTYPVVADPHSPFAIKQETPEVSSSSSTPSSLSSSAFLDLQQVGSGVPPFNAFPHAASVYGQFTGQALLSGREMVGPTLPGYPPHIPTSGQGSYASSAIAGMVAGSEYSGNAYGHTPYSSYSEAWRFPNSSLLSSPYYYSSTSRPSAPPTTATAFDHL

[20] = non-specific 3'UTR reporter inhibition in Clone20-Shn3RL – cell-based, Renilla luciferase, cherry-picked, counter-screen for Shn3 inhibitor project, dose response (AID 624133); assay type: functional
P388 = test: cells; assay type: functional; conditions: Mus musculus
SN12K1 = test: cells; assay type: functional; conditions: Homo sapiens
P388/ADR = test: cells; assay type: functional; conditions: Mus musculus
[21] = molecular target: T3, Polyadenylate-binding protein 1 (Homo sapiens, UniProt P11940); test: MLLE binding blockers, Cy5 peptide tracer – biochemical, fluorescence polarization, Cy5-PAM2 peptide, secondary, miRNA deadenylation inhibitor project, dose response (AID 602260); assay type: functional; conditions: read-out: IC50_Mean
[22] = molecular target: T3, Polyadenylate-binding protein 1; test: MLLE domain peptide-binding blockers, IC50 – biochemical, fluorescence polarization, FITC-PAM2 peptide, dose response (AID 602259); assay type: functional; conditions: read-out: IC50_Mean

Cc1cc(NC(=O)COC(=O)c2cc([N+](=O)[O-])ccc2N2CCOCC2)ccc1Br
IC50 (Fatty acid synthase [1]): 2.82 µM (active) | IC50 (Fatty acid synthase [2]): 4.33 µM (active)

Cn1nc(-c2ccccc2F)c2cc(C(=O)Nc3ccc4c(c3)OCCO4)sc21
AC50 [3]: 3.48 µM (active) | IC50 (H9c2): > 79 µM (inactive) | CC50 [4]: 26.9 µM (active) | CC50 [5]: > 40 µM (active)

Cc1cc(NS(=O)(=O)c2ccc(NC(=O)C(F)(F)F)cc2)no1
IC50 [6]: > 100 µM (not active)

CCCn1c(CN2CCN(c3cccc(Cl)c3)CC2)nc2c1c(=O)n(C)c(=O)n2C
IC50 [7]: 14.2 µM (active) | EC50 [8]: 33.1 µM (active) | EC50 [9]: 39.9 µM (active)

O=[N+]([O-])c1cccc(S(=O)(=O)NCc2ccncc2)c1
AC50 [10]: 3.09 µM (active) | AC50 [11]: 48.4 µM (active)

O=C(NN1C(=O)C2C(c3ccccc3)C=CC(c3ccccc3)C2C1=O)c1cccc(Br)c1 (stereo not given)
IC50 (Fatty acid synthase [1]): 12.1 µM (active) | IC50 (Fatty acid synthase [2]): 9.22 µM (active)

COc1cccc(N2C(=O)C(Cl)=C(N3CCN(CCO)CC3)C2=O)c1
IC50 [6]: > 50 µM (inconclusive)

CC(C)(C)C(=O)/C(=C\c1cccc([N+](=O)[O-])c1)n1cncn1
CC50 [5]: 4.33 µM (active)

CCCCNC(=O)c1onc(CSc2cccc3ccccc23)c1C(=O)O
IC50 (Genome polyprotein): 49.6 µM (active)

CCOc1nc(SCCOc2ccc(C)cc2)nc(N(C)C)n1
EC50 [8]: 56.2 µM (active) | EC50 [9]: 45 µM (active)

CN(C)C1=C(Cl)C(=O)N(c2ccnc(Cl)c2)C1=O
IC50 [6]: > 50 µM (inconclusive)

Cc1c(C(=O)N2CCOCC2)[nH]c2c1C(=O)CC(c1ccccc1Cl)C2 (stereo not given)
IC50 [12]: > 80 µM (inactive)

Clc1ccc(CN2C3=NCCCN3c3ccccc32)cc1
CC50 [13]: > 40 µM (active)

Cc1cc(C)cc(NC(=O)c2ccc(Cn3nc(C)c(Cl)c3C)o2)c1
CC50 [4]: 23.5 µM (active) | CC50 [5]: > 40 µM (active)

Cc1nn(-c2ccccc2)c(N)c1N=Nc1ccc(Cl)cc1
EC50 [14]: 5.82 µM (active) | EC50 [15]: 22.8 µM (inconclusive) | CC50 [5]: > 40 µM (active)

COc1ccc(NC(=O)c2ccccc2N(Cc2ccccc2)S(C)(=O)=O)cc1
IC50 [16]: 40.6 µM (not active)

Cc1nc2ccccc2c2nc3ccccc3n12
CC50 [5]: > 40 µM (active)

Cc1ccccc1OCCCCc1c(C)n[nH]c1C
CC50 [13]: > 40 µM (active) | EC50 (Streptococcus): 19 µM (active) | IC50 (cells): 7 µM (active) | EC50 [17]: 9.02 µM (active)

Cc1ccc(N2C(=O)C(Cl)=C(N3CCOCC3)C2=O)cc1
IC50 [6]: > 50 µM (inconclusive)

COC(=O)c1ccc(C2c3c(oc4ccc(Cl)cc4c3=O)C(=O)N2CCN2CCOCC2)cc1 (stereo not given)
IC50 (Fatty acid synthase [1]): 14.6 µM (active) | IC50 (Fatty acid synthase [2]): 11.6 µM (active)

N#C/C(=C\c1ccc(C(=O)O)cc1)c1nc(O)c2c3c(sc2n1)CCCC3
IC50 [16]: 3.52 µM (active)

COCCCNCCOCCOc1ccc(Cl)cc1C(C)(C)C
EC50 [8]: 14.3 µM (active) | EC50 [9]: 14.9 µM (active)

COc1cc(CNCCc2ccc(S(N)(=O)=O)cc2)ccc1OCc1ccc(Cl)cc1
EC50 [8]: 7.47 µM (active) | EC50 [18]: 0.43 µM (active) | EC50 [19]: > 60 µM (not active) | EC50 [9]: 9.48 µM (active)

O=C(C1=C[C@@H](c2ccc(C(F)(F)F)cc2)C[C@@H](OCc2ccc(CO)cc2)O1)N1CCN(Cc2ccccc2)CC1
IC50 [16]: 1.48 µM (not active)

CCO[C@H]1OC(C(=O)N2CCN(Cc3ccccc3)CC2)=C[C@@H](c2ccc(C(F)(F)F)cc2)[C@@H]1CCCO
AC50 (Paired box protein Pax-8): 14.3 µM (active)

Cc1cc(C)c2nc(N3C(=O)C(O)=C(C(=O)c4ccco4)C3c3ccc(O)cc3)sc2c1 (stereo not given)
IC50 (Genome polyprotein): 30.4 µM (active)

Cc1ccc(-c2csc3nc(C(C)C)oc(=O)c23)c(C)c1
IC50 (Fatty acid synthase [1]): 1.32 µM (active) | IC50 (Fatty acid synthase [2]): 0.761 µM (active)

COc1ccccc1Cc1c(-c2ccco2)nc2c(C)cc(Br)cn12
AC50 [20]: 5.7 µM (active) | AC50 [10]: 1.9 µM (active) | AC50 [11]: 45.6 µM (active)

N=C(N)SCc1cccc([N+](=O)[O-])c1
GI50 (P388): 15.5 µM (inactive) | GI50 (SN12K1): 32.7 µM (inactive) | GI50 (P388/ADR): 15.7 µM (inactive)

CC(C)(C)OC(=O)NCCc1onc(-c2cccc([N+](=O)[O-])c2)c1C(=O)O
IC50 (Fatty acid synthase [1]): 1.47 µM (active) | IC50 (Fatty acid synthase [2]): 1.16 µM (active)

CCCC#Cc1ccc([C@@H]2[C@H]3CN(S(=O)(=O)c4ccccc4F)CCCCN3[C@H]2CO)cc1
AC50 (Paired box protein Pax-8): 22.4 µM (active)

COc1cccc(-c2ccc3c(c2)[C@@H]2[C@@H](CCN2C(=O)NC2CCCCC2)[C@H](CO)N3C)c1
AC50 (Paired box protein Pax-8): 10.9 µM (active)

O=C(C[C@@H]1C[C@H]2c3cc(NC(=O)C4CCOCC4)ccc3O[C@H]2[C@H](CO)O1)NCc1ccc(Oc2ccccc2)cc1
AC50 (Paired box protein Pax-8): 34.3 µM (active)

CCOc1cc(/C=C2/S/C(=N/c3ccccc3)N(Cc3cccnc3)C2=O)ccc1OCC#N
EC50 [8]: 32.5 µM (active) | EC50 [9]: 26.9 µM (active)

CC(=C/c1ccccc1)/C=N/Nc1nc(N2CCCCC2)nc(N2CCCCC2)n1
EC50 [8]: 21.6 µM (active) | EC50 [9]: 24 µM (active)

c1cc2c3c(c1)c1cc4c(cc1c[n+]3CC2)OCO4 [ANHYDROLYCORINIUM CHLORIDE]
GI50 (P388): 0.515 µM (active) | GI50 (SN12K1): 1.95 µM (inactive) | GI50 (P388/ADR): 22 µM (inactive)

CN(C)CCN1C(=O)c2cccc3cc([N+](=O)[O-])cc(c23)C1=O [MITONAFIDE]
AC50 [10]: 1.11 µM (active) | IC50 [21]: > 66 µM (inactive) | IC50 [22]: 43.4 µM (inactive) | AC50 [11]: 2.2 µM (active)
